Results from patent US8778871B2 (Takeda Pharmaceutical Company Limited, priority 2004, dated 2014).
Starred links: 1 amine or outer side, 2 acyl side, 3 side chain; linkers in the order of their positions; H or OH if unused. Non-standard residues stand in square brackets, D forms with d. Residues, ends and D or L forms follow the SMILES beside them. No end group written: not given here. X8 = O=C([C@H](Cc1ccc2ccccc2n1)N[*:1])[*:2]; Phe(4-NH2) = Nc1ccc(C[C@H](N)C(=O)O)cc1; 2Nal = N[C@@H](Cc1ccc2ccccc2c1)C(=O)O; Arg(Me) = CNC(=N)NCCC[C@H](N)C(=O)O; Cha = N[C@@H](CC1CCCCC1)C(=O)O; azaGly = NNC(=O)O

Target: T1, hOT7T175 (Homo sapiens, UniProt Q969F8, L364H)
T1 construct: expressed in transfected cells
Assay: Intracellular Ca ion level-increasing activity using FLIPR (180 seconds; specific activity to Metastin (1-54))
Format: cell-based
Settings: hOT7T175/CHO, relative to Metastin (1-54) = 1

T1 sequence (Q969F8 whole entry L364H): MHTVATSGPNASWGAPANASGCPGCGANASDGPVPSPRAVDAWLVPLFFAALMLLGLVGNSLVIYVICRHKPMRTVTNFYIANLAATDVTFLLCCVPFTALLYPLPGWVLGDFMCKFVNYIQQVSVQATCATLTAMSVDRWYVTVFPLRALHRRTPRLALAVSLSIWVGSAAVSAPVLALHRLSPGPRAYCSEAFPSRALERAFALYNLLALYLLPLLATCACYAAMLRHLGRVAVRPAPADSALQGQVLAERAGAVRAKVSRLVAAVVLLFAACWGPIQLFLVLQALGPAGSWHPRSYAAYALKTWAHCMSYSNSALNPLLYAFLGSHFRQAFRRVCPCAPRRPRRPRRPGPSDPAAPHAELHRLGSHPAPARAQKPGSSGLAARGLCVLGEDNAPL

Compound	Specific Act. (intracellular Ca ion level-increasing activity, specific activity to Metastin (1-54))
CC(C)C[C@H](NC(=O)CNC(=O)[C@H](Cc1ccccc1)NC(=O)[C@H](CO)NC(=O)[C@H](CC(N)=O)NC(=O)[C@H](Cc1c[nH]c2ccccc12)NC(=O)[C@H](CC(N)=O)NC(=O)[C@@H](N)Cc1ccc(O)cc1)C(=O)N[C@@H](CCCNC(=N)N)C(=O)N[C@@H](Cc1ccc([N+](=O)[O-])cc1)C(N)=O [Compound No. 132]	10
CNC(=N)NCCC[C@H](NC(=O)[C@H](CC(C)C)NC(=O)NNC(=O)[C@H](Cc1ccccc1)NC(=O)[C@H](CO)NC(=O)[C@H](CC(N)=O)NC(=O)[C@H](CC1CCCCC1)NC(=O)[C@H](CC(N)=O)NC(=O)[C@H](N)Cc1ccc(O)cc1)C(=O)N[C@@H](Cc1ccccc1)C(N)=O [Compound No. 190, D-Tyr-Asn-Cha-Asn-Ser-Phe-AzaGly-Leu-Arg(Me)-Phe-NH2] (H-[dY]N[Cha]NSF[azaGly]L[Arg(Me)]F-NH2)	10
CNC(=N)NCCC[C@H](NC(=O)[C@H](CC(C)C)NC(=O)CNC(=O)[C@H](Cc1ccccc1)NC(=O)[C@H](CO)NC(=O)[C@H](CC(N)=O)NC(=O)[C@@H](NC(=O)[C@H](CC(N)=O)NC(=O)[C@H](N)Cc1ccc(O)cc1)C(C)C)C(=O)N[C@@H](Cc1ccccc1)C(N)=O [Compound No. 229] (H-[dY]NVNSFGL[Arg(Me)]F-NH2)	1
CNC(=N)NCCC[C@H](NC(=O)[C@H](CC(C)C)NC(=O)NNC(=O)[C@H](Cc1ccccc1)NC(=O)[C@H](CO)NC(=O)[C@H](CC(N)=O)NC(=O)[C@H](Cc1ccc2ccccc2c1)NC(=O)[C@H](CC(N)=O)NC(=O)[C@H](N)Cc1ccc(O)cc1)C(=O)N[C@@H](Cc1ccccc1)C(N)=O [Compound No. 246, D-Tyr-Asn-Nal(2)-Asn-Ser-Phe-AzaGly-Leu-Arg(Me)-Phe-NH2] (H-[dY]N[2Nal]NSF[azaGly]L[Arg(Me)]F-NH2)	2
CC(C)C[C@H](NC(=O)CNC(=O)[C@H](Cc1ccccc1)NC(=O)[C@H](CO)NC(=O)[C@H](CC(N)=O)NC(=O)[C@H](Cc1c[nH]c2ccccc12)NC(=O)[C@H](CC(N)=O)NC(=O)[C@@H](N)Cc1ccc(O)cc1)C(=O)N[C@@H](CCCNC(=N)N)C(=O)N[C@@H](Cc1ccc2ccccc2n1)C(N)=O [Compound No. 201] (H-YNWNSFGLR[X8]-NH2)	1
CNC(=N)NCCC[C@H](NC(=O)[C@H](CC(C)C)NC(=O)NNC(=O)[C@H](Cc1ccccc1)NC(=O)[C@H](CO)NC(=O)[C@H](CC(N)=O)NC(=O)[C@H](Cc1ccc(N)cc1)NC(=O)[C@H](CC(N)=O)NC(=O)[C@H](N)Cc1ccc(O)cc1)C(=O)N[C@@H](Cc1ccccc1)C(N)=O [Compound No. 250, D-Tyr-Asn-Phe(4NH2)-Asn-Ser-Phe-AzaGly-Leu-Arg(Me)-Phe-NH2] (H-[dY]N[Phe(4-NH2)]NSF[azaGly]L[Arg(Me)]F-NH2)	1
CC(C)C[C@H](NC(=O)CNC(=O)[C@H](Cc1ccccc1)NC(=O)[C@H](CO)NC(=O)[C@H](CC(N)=O)NC(=O)[C@H](Cc1c[nH]c2ccccc12)NC(=O)[C@H](CC(N)=O)NC(=O)[C@@H](N)Cc1ccc(O)cc1)C(=O)N[C@@H](CCCNC(=N)N)C(=O)N[C@@H](Cc1ccccc1)C(N)=O [Compound No. 3, reference compound]	10
CNC(=N)NCCC[C@H](NC(=O)[C@H](CC(C)C)NC(=O)CNC(=O)[C@H](Cc1ccccc1)NC(=O)[C@H](CO)NC(=O)[C@H](CC(N)=O)NC(=O)[C@H](Cc1c[nH]c2ccccc12)NC(=O)[C@@H](NC(=O)[C@H](N)Cc1ccc(O)cc1)[C@@H](C)O)C(=O)N[C@@H](Cc1ccccc1)C(N)=O [Compound No. 215] (H-[dY]TWNSFGL[Arg(Me)]F-NH2)	10
CNC(=N)NCCC[C@H](NC(=O)[C@H](CC(C)C)NC(=O)NNC(=O)[C@H](Cc1ccccc1)NC(=O)[C@H](CO)NC(=O)[C@H](CC(N)=O)NC(=O)[C@@H](Cc1c[nH]c2ccccc12)NC(=O)[C@H](CC(N)=O)NC(=O)[C@H](N)Cc1ccc(O)cc1)C(=O)N[C@@H](Cc1ccccc1)C(N)=O [Compound No. 236, D-Tyr-Asn-D-Trp-Asn-Ser-Phe-AzaGly-Leu-Arg(Me)-Phe-NH2]	2
COc1ccc(C[C@H](NC(=O)[C@H](CCCNC(=N)N)NC(=O)[C@H](CC(C)C)NC(=O)CNC(=O)[C@H](Cc2ccccc2)NC(=O)[C@H](CO)NC(=O)[C@H](CC(N)=O)NC(=O)[C@H](Cc2c[nH]c3ccccc23)NC(=O)[C@H](CC(N)=O)NC(=O)[C@@H](N)Cc2ccc(O)cc2)C(N)=O)cc1 [Compound No. 18] (H-YNWNSFGLRY(Me)-NH2)	1
D-Tyr-Asn-Trp-Gln-Ser-Phe-Gly-Leu-Arg(Me)-Phe-NH2 ([dY]NWQSFGL[Arg(Me)]F-NH2) [Compound No. 209]	½
CNC(=N)NCCC[C@H](NC(=O)[C@H](CC(C)C)NC(=O)NNC(=O)[C@H](Cc1ccccc1)NC(=O)[C@H](CO)NC(=O)[C@H](CC(N)=O)NC(=O)[C@H](Cc1c[nH]c2ccccc12)NC(=O)[C@@H](CC(N)=O)NC(=O)[C@H](N)Cc1ccc(O)cc1)C(=O)N[C@@H](Cc1ccccc1)C(N)=O [Compound No. 237, D-Tyr-D-Asn-Trp-Asn-Ser-Phe-AzaGly-Leu-Arg(Me)-Phe-NH2]	3
CCNC(=N)NCCC[C@H](NC(=O)[C@H](CC(C)C)NC(=O)CNC(=O)[C@H](Cc1ccccc1)NC(=O)[C@H](CO)NC(=O)[C@H](CC(N)=O)NC(=O)[C@H](Cc1c[nH]c2ccccc12)NC(=O)[C@H](CC(N)=O)NC(=O)[C@@H](N)Cc1ccc(O)cc1)C(=O)N[C@@H](Cc1ccccc1)C(N)=O [Compound No. 220]	5
CC(C)C[C@H](NC(=O)CNC(=O)[C@H](Cc1ccccc1)NC(=O)[C@H](CO)NC(=O)[C@H](CC(N)=O)NC(=O)[C@H](Cc1c[nH]c2ccccc12)NC(=O)[C@H](CC(N)=O)NC(=O)[C@@H](N)Cc1ccc(O)cc1)C(=O)N[C@@H](CCCNC(=N)N)C(=O)N[C@@H](Cc1ccc(Cl)c(Cl)c1)C(N)=O [Compound No. 199]	3
CNC(=N)NCCC[C@H](NC(=O)[C@H](CC(C)C)NC(=O)CNC(=O)[C@H](Cc1ccccc1)NC(=O)[C@H](CO)NC(=O)[C@H](CC(N)=O)NC(=O)[C@@H](Cc1c[nH]c2ccccc12)NC(=O)[C@H](N)Cc1ccc(O)cc1)C(=O)N[C@@H](Cc1ccccc1)C(N)=O [Compound No. 224, D-Tyr-D-Trp-Asn-Ser-Phe-Gly-Leu-Arg(Me)-Phe-NH2] (H-[dY][dW]NSFGL[Arg(Me)]F-NH2)	2
H-DNWNSFGLRF-NH2 [Compound No. 75]	1
CC(C)C[C@H](NC(=O)CNC(=O)[C@H](Cc1ccccc1)NC(=O)[C@H](CO)NC(=O)[C@H](CC(N)=O)NC(=O)[C@H](Cc1c[nH]c2ccccc12)NC(=O)[C@H](CC(N)=O)NC(=O)[C@@H](N)Cc1ccc(O)cc1)C(=O)N[C@@H](CCCNC(=N)N)C(=O)N[C@@H](Cc1ccccc1F)C(N)=O [Compound No. 19]	2
CNC(=N)NCCC[C@H](NC(=O)[C@H](CC(C)C)NC(=O)CNC(=O)[C@H](CC1CCCCC1)NC(=O)[C@H](CO)NC(=O)[C@H](CC(N)=O)NC(=O)[C@H](Cc1c[nH]c2ccccc12)NC(=O)[C@H](CC(N)=O)NC(=O)[C@H](N)Cc1ccc(O)cc1)C(=O)N[C@@H](Cc1ccccc1)C(N)=O [Compound No. 203, D-Tyr-Asn-Trp-Asn-Ser-Cha-Gly-Leu-Arg(Me)-Phe-NH2] (H-[dY]NWNS[Cha]GL[Arg(Me)]F-NH2)	10
CNC(=N)NCCC[C@H](NC(=O)[C@H](CC(C)C)NC(=O)NNC(=O)[C@H](Cc1ccccc1)NC(=O)[C@H](CO)NC(=O)[C@H](CC(N)=O)NC(=O)[C@@H](NC(=O)[C@H](CC(N)=O)NC(=O)[C@H](N)Cc1ccc(O)cc1)C(C)C)C(=O)N[C@@H](Cc1ccccc1)C(N)=O [Compound No. 234, D-Tyr-Asn-Val-Asn-Ser-Phe-AzaGly-Leu-Arg(Me)-Phe-NH2] (H-[dY]NVNSF[azaGly]L[Arg(Me)]F-NH2)	1
CC(C)C[C@H](NC(=O)CNC(=O)[C@H](Cc1ccc(F)cc1)NC(=O)[C@H](CO)NC(=O)[C@H](CC(N)=O)NC(=O)[C@H](Cc1c[nH]c2ccccc12)NC(=O)[C@H](CC(N)=O)NC(=O)[C@@H](N)Cc1ccc(O)cc1)C(=O)N[C@@H](CCCNC(=N)N)C(=O)N[C@@H](Cc1ccccc1)C(N)=O [Compound No. 154, Tyr-Asn-Trp-Asn-Ser-Phe(4F)-Gly-Leu-Arg-Phe-NH2]	5
CC(C)C[C@H](NC(=O)CNC(=O)[C@H](Cc1ccccc1)NC(=O)[C@H](CO)NC(=O)[C@H](CC(N)=O)NC(=O)[C@H](Cc1c[nH]c2ccccc12)NC(=O)[C@H](CC(N)=O)NC(=O)[C@@H](N)Cc1ccc(O)cc1)C(=O)N[C@@H](CCCNC(=N)N)C(=O)N[C@@H](CC1CCCCC1)C(N)=O [Compound No. 112] (H-YNWNSFGLR[Cha]-NH2)	2
CNC(=N)NCCC[C@H](NC(=O)[C@H](CC(C)C)NC(=O)[C@H](C)NC(=O)[C@H](Cc1ccccc1)NC(=O)[C@H](CO)NC(=O)[C@H](CC(N)=O)NC(=O)[C@H](Cc1c[nH]c2ccccc12)NC(=O)[C@H](CC(N)=O)NC(=O)[C@H](N)Cc1ccc(O)cc1)C(=O)N[C@@H](Cc1ccccc1)C(N)=O [Compound No. 204] (H-[dY]NWNSFAL[Arg(Me)]F-NH2)	5
